{
  "source": "patent US20240393319A1",
  "about": "“FLUORESCENT SENSORS AND METHODS OF MAKING AND USING” (Howard Hughes Medical Institute, priority 2023, published 2024)",
  "key": {"[1]": {"system": "synaptic boutons of hippocampal neurons", "assay": "Syn-iATPSnFR2.HaloTag imaging of ATP depletion in boutons", "assay_type": "cell-based, rat", "conditions": "5 mM glucose + 10 μM KA + 0.3 μM TTX"}, "[2]": {"system": "axonal mitochondria of primary hippocampal neurons", "assay": "Mitochondrial ATP in primary hippocampal neurons (mito-iATPSnFR2.A95A.A119L.HaloTag)", "assay_type": "cell-based, Sprague-Dawley rats", "conditions": "10 μM KA in 5 mM glucose", "protocol": "Primary neuronal cultures were prepared as previously described. Hippocampal CA1 to CA3 regions were dissected, dissociated, and plated onto poly-L-ornithine-coated coverslips. Plating media consisted of the minimal essential medium, 0.5% glucose, insulin (0.024 g/l), transferrin ([…]), GlutaMAX 1%, N-21 (2%), and fetal bovine serum (10%). After 1-3 days in vitro (DIV), cells were fed and maintained in media with the following modifications: cytosine β-D-arabinofuranoside (4 μM) and FBS 5%. Cultures were incubated at 37° C. in a 95% air/5% CO2 incubator. Calcium phosphate-mediated gene transfer was performed on DIV 6-8, and neurons were used for experiments on DIV 14-21.\nCoverslips were loaded onto a custom chamber, mounted on a […], 2.5 mM KCl, […], 25 mM HEPES, 2 mM CaCl2), 2 mM MgCl2, 50 μM DL-2-amino-5-phosphonovaleric acid (APV, AP5), 10 μM 6-cyano-7-nitroquinoxaline-2,3-dione (CNQX), adjusted to pH 7.4. […] Fluorescence was stimulated with OBIS 488 nm LX or OBIS 637 nm LS lasers (Coherent) passing through a laser speckle reducer (LSR 3005 at 12° diffusion angle, Optotune). […]\nTime series of imaging pairs (HaloTag and iATPSnFR2) were automated split into two independent image series using a custom-written Fiji routine to facilitate analysis. […] Synaptic boutons signals were analyzed using homemade script routines in Igor-pro v 6.3.7.2 (Wavemetric, Lake Oswego, OR, USA). […]"}, "[3]": {"system": "nerve terminals of hippocampal neurons", "assay": "Nerve terminal ATP in cultured neurons (iATPSnFR2.HaloTag-JFX650)", "assay_type": "cell-based, Sprague-Dawley rats"}, "LMTK- cells": {"system": "LMTK- cells", "assay": "Green:red ratio imaging in parental LMTK- fibroblasts", "assay_type": "cell-based, mouse", "conditions": "parental cells, both 2dOG and oligomycin", "protocol": "(§1) Rho° and the parental LMTK-cells were maintained in T-75 flasks with DMEM+10% FBS+1 mM pyruvate+5 μM uridine. Two days prior to transfection, they were split into a 24-well plate (half Rho°, half LMTK) at 0.6 and 0.1 million cells per well, respectively. Cells were transfected with iATPSnFR2.HaloTag variants by lipofectamine (0.5 μg DNA+2 μL lipofectamine 2000 per well) for 4-6 hours in DMEM lacking FBS or antibiotics. Transfection media was replaced with fresh DMEM+10% FBS+penicillin/streptomycin overnight. Cells were labeled with JFX650 HaloTag ligand by adding the fluorophore to 100 nM for an hour. Cells were washed with Mammalian Cell Imaging Buffer and imaged in a Cytation 5 imaging reader (BioTek) over the course of about 2 hours. After about 20 minutes of imaging to establish a baseline fluorescence, the culture plate was removed from the instrument and buffer was replaced with the query buffer. The equilibration buffer contained 10 mM glucose, and the query buffers contained 10 mM 2dOG.\n(§2) Images were background subtracted and aligned for movement artefacts with the Gen5 software package that controls the Cytation 5 instrument. Images were assembled as TIF stacks and imported into ImageJ. […] Those ROIs were used to determine the ratio of green to red fluorescence for each well. […]"}, "[4]": {"system": "axonal mitochondria of primary hippocampal neurons", "assay": "mito-iATPSnFR2.HaloTag imaging of mitochondrial ATP in neurons", "assay_type": "cell-based, rat", "conditions": "1.25 mM lactate + 1.25 mM pyruvate + 10 μM oligomycin", "protocol": "All experiments involving animals were performed in accordance with protocols approved by the Weill Cornell Medicine Institutional Animal Care and Use Committee. Neurons were derived from Sprague-Dawley rats (Charles River Laboratories strain code: 001, RRID: RGD_734476) of either sex on postnatal days 0-2).\nPrimary neuronal cultures were prepared as previously described. Hippocampal CA1 to CA3 regions were dissected, dissociated, and plated onto poly-L-ornithine-coated coverslips. Plating media consisted of the minimal essential medium, 0.5% glucose, insulin (0.024 g/l), transferrin ([…]), GlutaMAX 1%, N-21 (2%), and fetal bovine serum (10%). After 1-3 days in vitro (DIV), cells were fed and maintained in media with the following modifications: cytosine β-D-arabinofuranoside (4 μM) and FBS 5%. Cultures were incubated at 37° C. in a 95% air/5% CO2 incubator. […]\nCoverslips were loaded onto a custom chamber, mounted on a Zeiss inverted microscope and perfused at ˜100 μl min^−1 with Tyrode's solution containing: 119 mM NaCl, 2.5 mM KCl, 30 mM glucose, 25 mM HEPES, 2 mM CaCl2), 2 mM MgCl2, 50 μM DL-2-amino-5-phosphonovaleric acid (APV, AP5), 10 μM 6-cyano-7-nitroquinoxaline-2,3-dione (CNQX), adjusted to pH 7.4. […] Fluorescence was stimulated with OBIS 488 nm LX or OBIS 637 nm LS lasers (Coherent) passing through a laser speckle reducer (LSR 3005 at 12° diffusion angle, Optotune). […]"}, "[5]": {"system": "LMTK- cells (parental fibroblast cell line)", "assay": "Green:red fluorescence (ATP) on treatment", "assay_type": "cell-based, mouse", "conditions": "10 mM 2dOG replacing glucose", "protocol": "as §1, §2"}, "Rho° (ρ^0) cells": {"system": "Rho° (ρ^0) cells", "assay": "Green:red fluorescence (ATP) on treatment", "assay_type": "cell-based, mouse", "conditions": "10 mM 2dOG replacing glucose", "protocol": "as §1, §2"}, "[6]": {"system": "primary hippocampal neurons", "assay": "Synaptic endurance (vGlutI-pH) under repeated stimulation in 0.1 mM glucose", "assay_type": "cell-based, rat"}, "[7]": {"system": "nerve terminals of primary hippocampal neurons", "assay": "Presynaptic ATP dynamics with synapto-iATPSnFR2-miRFP670nano3", "assay_type": "cell-based, rat", "conditions": "0.1 mM glucose", "from_the_text": "For synapto-iATPSnFR2-miRFP670nano3 experiments, nerve terminals were selected in the miRFP670nano3 channels, blind to the ATPsnfr channel and then background subtracted. The traces are reported as iATPsnfr2 to miRFP670nano3 ratio, Fratio."}, "DJ-1 KD neurons": {"system": "DJ-1 KD neurons", "assay": "Synaptic endurance in DJ-1 knock-down neurons", "assay_type": "cell-based, Sprague-Dawley rats", "conditions": "TZ", "from_the_text": "(§3) FIG. 11A-11H are experimental results showing that PARK7/DJ-1 is necessary for PGK1 driven hypometabolic resilience.\n(§4) An unbiased chemical screen recently led to the identification of an interaction between PGK1 and DJ-1, the product of the PARK7 gene, a genetic driver of familial PD. DJ-1 is a chaperone with strong structurally similarity to HSP31 but the precise clientele that it supports related to PD is poorly understood. To investigate whether DJ-1 has a functional impact on PGK1 function, we probed PGK1 rescue of hypometabolic synaptic function, but in absence of DJ-1. […] Furthermore, when glucose was substituted with a mixture of lactate and pyruvate, SV recycling kinetics in DJ-1 KD neurons was indistinguishable from control."}, "[8]": {"system": "DJ-1 KD neurons, nerve terminals", "assay": "Presynaptic ATP in DJ-1 knock-down neurons", "assay_type": "cell-based, Sprague-Dawley rats", "conditions": "TZ", "from_the_text": "as §3, §4"}, "[9]": {"assay": "Stopped-flow fluorescence kinetics of ATP binding", "protocol": "Final concentration of protein was thus 0.1 μM."}, "[10]": {"system": "nerve terminals of dissociated hippocampal neurons", "assay": "Cytosolic ATP in nerve terminals during action potential firing", "assay_type": "cell-based, rat", "conditions": "6 sec at 50 Hz, 5 mM glucose + 10 μM KA"}},
  "note": "Entries after “also recorded” stand apart in the source; their conditions may differ.",
  "data": [
    {"molecule": "CC(C)[C@H]1CC[C@@]2(CO2)[C@H]2C(=O)OCC(C(=O)O)=C[C@H]12", "note": "[koningic acid]", "values": [
      {"measurement": "average green to red fluorescence ratio in boutons", "setting": "[1]", "result": "gradually declined over a 5-10 min period"},
      {"measurement": "change in mitochondrial ATP", "setting": "[2]", "result": "gradual decrease of [ATP]"},
      {"measurement": "decline of average green to red ratio (ATP) without activity", "setting": "[3]; 10 μM KA with 0.3 μM TTX", "result": "gradually declined over a 5-10 min period"},
      {"measurement": "time for ATP depletion in single boutons after delay", "setting": "[3]; 10 μM KA with 0.3 μM TTX", "result": "10 to 20", "unit": "s"},
      {"measurement": "change in fluorescence (ATP) during action potential firing", "setting": "[3]; 10 μM KA, 5 mM glucose, 50 Hz 6 sec", "result": "even greater decrease in fluorescence that did not recover within the minute and a half observation window"}
    ]},
    {"molecule": "CC[C@H]1/C=C/C=C/C[C@@H](C)[C@H](O)[C@@](C)(O)C(=O)[C@@H](C)[C@H](O)[C@@H](C)C(=O)[C@@H](C)[C@H](O)[C@@H](C)/C=C/C(=O)O[C@@H]2[C@H](C)[C@H](CC1)O[C@]1(CC[C@H](C)[C@H](C[C@@H](C)O)O1)[C@H]2C", "note": "[oligomycin]", "values": [
      {"measurement": "fluorescence after 2dOG and oligomycin", "setting": "LMTK- cells", "result": "dropped in a manner similar to the ρ^0 cells"},
      {"measurement": "mitochondrial ATP signal", "setting": "[4]", "result": "further collapse of the ATP signal"}
    ]},
    {"molecule": "OC[C@H]1OC(O)C[C@@H](O)[C@@H]1O", "note": "(stereo partly shown) [2dOG, 2-deoxyglucose]", "values": [
      {"measurement": "change in green fluorescence (ATP)", "setting": "[5]", "result": "decreased fluorescence only in the parental LMTK-cells expressing the weakest affinity variant (A95A.A119L)"},
      {"measurement": "change in green fluorescence (ATP)", "setting": "Rho° (ρ^0) cells", "result": "green fluorescence rapidly dropped; also recorded: significant decrease in fluorescence"}
    ]},
    {"molecule": "COc1cc2nc(N3CCN(C(=O)C4CCCO4)CC3)nc(N)c2cc1OC", "note": "(stereo not shown) [TZ, Terazosin]", "values": [
      {"measurement": "synaptic endurance in low glucose", "setting": "[6]; 1 μM", "result": "ineffective"},
      {"measurement": "synaptic endurance in low glucose", "setting": "[6]; 10 μM", "result": "conferred significant resilience"},
      {"measurement": "synaptic endurance in low glucose", "setting": "[6]; 100 μM", "result": "either ineffective or likely deleterious"},
      {"measurement": "synaptic endurance in low glucose", "setting": "[6]; 0.1 mM glucose, concentration not given", "result": "confers significant resilience"},
      {"measurement": "synaptic endurance in low glucose", "setting": "[6]; absence of DJ-1 (DJ-1 KD)", "result": "completely failed to restore synaptic endurance"},
      {"measurement": "synaptic endurance in low glucose", "setting": "[6]; neurons with shRNA targeting PGK1", "result": "eliminated"},
      {"measurement": "resting (pre-stimulus) nerve terminal ATP", "setting": "[7]", "result": "slightly elevated; also recorded: higher starting ATP"},
      {"measurement": "ATP depletion during stimulation", "setting": "[7]; 600 APs at 10 Hz", "result": "blunted; also recorded: significantly smaller activity-induced drops in ATP"},
      {"measurement": "ATP production following activity", "setting": "[7]; DJ-1 KD neurons", "result": "no acceleration of ATP production; also recorded: inability of TZ to accelerate ATP kinetics"},
      {"measurement": "recycling restoration: slowing of SV recycling after intense stimulation", "setting": "DJ-1 KD neurons", "result": "could not be reversed"},
      {"measurement": "acceleration of ATP production after burst of activity", "setting": "[8]", "result": "inability of TZ to accelerate ATP kinetics in absence of DJ-1"}
    ]},
    {"molecule": "A95K: medium affinity iATPSnFR2 variant, characterised as HaloTag-JFX650 fusion", "values": [
      {"measurement": "rate of ATP binding / fluorescence change, comparison", "setting": "[9]", "result": "faster than A95A.A119L"},
      {"measurement": "fluorescence change on action potential firing", "setting": "[10]", "result": "much smaller amplitude"}
    ]}
  ]
}
